These results are taken from patent EP0512754B1 (AMERICAN HOME PRODUCTS CORPORATION, priority 1991, dated 1992).

Like-named read-outs stand apart in the source and are kept apart here. Bounds are passed on as bounds.

Assay [1] deals with pinch skin graft from male DBA/2 donors transplanted to male BALB/c recipients. Description: pinch skin graft survival time. Format: in vivo. The settings on record: DBA/2 donors to BALB/c recipients, treated intraperitoneally; mean ± S.D. The protocol:
(§1) Immunosuppressive activity was evaluated in an in vitro standard pharmacological test procedure to measure lymphocyte proliferation (LAF) and in two in vivo standard pharmacological test procedures. The first in vivo procedure was a popliteal lymph node (PLN) test procedure which measured the effect of compounds of this invention on a mixed lymphocyte reaction and the second in vivo procedure evaluated the survival time of a pinch skin graft.
The second in vivo test procedure is designed to determine the survival time of pinch skin graft from male DBA/2 donors transplanted to male BALB/c recipients. The method is adapted from Billingham R.E. and Medawar P.B., J. Exp. Biol. 28:385-402, (1951). Briefly, a pinch skin graft from the donor is grafted on the dorsum of the recipient as a homograft, and an autograft is used as control in the same region. […] Untreated recipients serve as rejection control. The graft is monitored daily and observations are recorded until the graft becomes dry and forms a blackened scab. This is considered as the rejection day. The mean graft survival time (number of days ± S.D.) of the drug treatment group is compared with the control group.

Assay [2] concerns mixed lymphocyte reaction. Description: popliteal lymph node (PLN) test procedure, in vivo mixed lymphocyte reaction. The settings on record: for PLN Activity relative to Rapamycin: ratio to rapamycin. On the set-up: species or system C3H mice. As for the experimental part: as §1
A mixed lymphocyte reaction (MLR) occurs when lymphoid cells from genetically distinct animals are combined in tissue culture. Each stimulates the other to undergo blast transformation which results in increased DNA synthesis that can be quantified by the incorporation of tritiated thymidine. Since stimulating a MLR is a function of disparity at Major Histocompatibility antigens, an in vivo popliteal lymph node (PLN) test procedure closely correlates to host vs. graft disease. Briefly, irradiated spleen cells from BALB/c donors are injected into the right hind foot pad of recipient C3H mice. […] On Day 3 and Day 4, tritiated thymidine is given i.p., b.i.d. On Day 5, the hind popliteal lymph nodes are removed and dissolved, and radioactivity counted. The corresponding left PLN serves as the control for the PLN from the injected hind foot. Percent suppression is calculated using the non-drug treated animals as allogenic control.

Assay [3] deals with cells from the thymus of normal BALB/c mice. As to the kind of experiment: comitogen-induced thymocyte proliferation procedure (LAF). Format: cell-based. The following applies: read-out: LAF IC50. The protocol: as §1
The comitogen-induced thymocyte proliferation procedure (LAF) was used as an in vitro measure of the immunosuppressive effects of representative compounds. Briefly, cells from the thymus of normal BALB/c mice are cultured for 72 hours with PHA and IL-1 and pulsed with tritiated thymidine during the last six hours. […] Cells are harvested and incorporated; radioactivity is determined. Inhibition of lymphoproliferation is assessed in percent change in counts per minute from non-drug treated controls. […] (()^3 (H-control thymus cells - H)^3 rapamycin-treated thymus cells)/(()^3 (H-control thymus cells - H)^3 -test compound-treated cells) [formula]

Assay [4] deals with Candida albicans ATCC 10231. Description: plate test procedure for antifungal activity. Format: cell-based. The settings on record: strain ATCC 10231. As for the experimental part:
(§2) Antifungal activity of the compounds of this invention was measured against 5 strains of Candida albicans using a plate test procedure for measurement of inhibition. The following represents the typical procedure used. The compound to be tested was placed on sterile dried 1/4" plate disks, and allowed to dry. Agar plates were seeded with fungi and allowed to solidify. The impregnated disks were placed on the seeded Agar surface and incubated for the time required for the particular culture. Results are expressed in MIC (µg/ml) to inhibit growth.
(§3) The compounds of Examples 1 and 4 had the following minimal inhibitory concentrations (50%) against 5 strains of Candida albicans.

Assay [5] relates to Candida albicans ATCC 38248. As to the kind of experiment: plate test procedure for antifungal activity. Format: cell-based. The settings on record: strain ATCC 38248. As for the experimental part:
as §2, §3

Assay [6] deals with Candida albicans ATCC 38247. As to the kind of experiment: plate test procedure for antifungal activity. The format is cell-based. The following applies: strain ATCC 38247. The protocol: as §2, §3
For a further assay, the system named is Candida albicans 3669. As to the kind of experiment: plate test procedure for antifungal activity. Format: cell-based. The following applies: strain 3669. The protocol:
as §2, §3

Assay [7] concerns Candida albicans ATCC 38246. Description: plate test procedure for antifungal activity. Format: cell-based. The settings on record: strain ATCC 38246. The protocol: as §2, §3
Where [8] appears, read: Mus musculus, Thymocyte, 72 h, thymocytes cultured 72 hours with PHA and IL-1, tritiated thymidine incorporation.
[9] abbreviates: thymocytes cultured 72 hours with PHA and IL-1, tritiated thymidine incorporation.

`CO[C@H]1C[C@@H]2CC[C@@H](C)[C@@](O)(O2)C(O)C(=O)N2CCCC[C@H]2C(=O)O[C@H]([C@H](C)C[C@@H]2CC[C@@H](O)[C@H](OC)C2)CC(=O)[C@H](C)/C=C(\C)[C@@H](O)[C@@H](OC)C(=O)[C@H](C)C[C@H](C)/C=C/C=C/C=C/1C` (stereo partly shown) [Example 1, 15-Deoxo-15-hydroxyrapamycin]: the “Skin Graft Mean survival days” value in assay [1] is recorded as 9.8 ± 1.0 days. In addition, the “PLN Activity relative to Rapamycin” value in assay [2] (ip) is reported as -0.07; in assay [2] (po) it was -2.47. The concentration for half-maximal inhibition (IC50) in assay [3] (setting [8]) is 0.58 nM.

Regarding “33-Deoxy-33-hydroxyrapamycin [Example 4]”, the “Skin Graft Mean survival days” value in assay [1] worked out at 10.0 days. Moreover, the “Anti-Candida Activity, Minimal Inhibitory Concentration (50%)” value in assay [4] was 0.05 µg/mL; in assay [5], 0.006 µg/mL; in assay [6], 0.03 µg/mL; with Candida albicans 3669 it was 0.25 µg/mL; in assay [7] it was greater than 0.4 µg/mL. Besides, in assay [2] (route not printed in the cell (method: daily p.o. Day 0 to Day 4)), the “PLN Activity relative to Rapamycin” value came out at 0.59. In assay [3] (setting [9]), the IC50 was 4.7 nM.

As to `CO[C@H]1C[C@@H]2CC[C@@H](C)[C@@](O)(O2)C(O)C(=O)N2CCCC[C@H]2C(=O)O[C@H]([C@H](C)C[C@@H]2CC[C@@H](O)[C@H](OC)C2)CC(O)[C@H](C)/C=C(\C)[C@@H](O)[C@@H](OC)C(=O)[C@H](C)C[C@H](C)/C=C/C=C/C=C/1C` (single isomer, unassigned) [Example 3, 15,27-di(deoxo)-15,27-di(hydroxy)rapamycin], the “Skin Graft Mean survival days” value in assay [1] came to 9.5 ± 5.5 days. For the same molecule, in assay [2] (ip), the “PLN Activity relative to Rapamycin” value was determined as 0.92 ip. Also, in assay [3] (setting [9]), the IC50 was 0.84 nM.

For the molecule `CO[C@H]1C[C@@H]2CC[C@@H](C)[C@@](O)(O2)C(O)C(=O)N2CCCC[C@H]2C(=O)O[C@H]([C@H](C)C[C@@H]2CC[C@@H](O)[C@H](OC)C2)CC(O)[C@H](C)/C=C(\C)[C@@H](O)[C@@H](OC)C(=O)[C@H](C)C[C@H](C)/C=C/C=C/C=C/1C` (single isomer, unassigned) [Example 2, 15,27-di(deoxo)-15,27-di(hydroxy)rapamycin], the “Skin Graft Mean survival days” value in assay [1] was 9.2 ± 0.41 days. Moreover, in assay [3] (setting [8]), the IC50 was found to be 0.67 nM.

As to `CO[C@H]1C[C@@H]2CC[C@@H](C)[C@@](O)(O2)C(=O)C(=O)N2CCCC[C@H]2C(=O)O[C@H]([C@H](C)C[C@@H]2CC[C@@H](O)[C@H](OC)C2)CC(=O)[C@H](C)/C=C(\C)[C@@H](O)[C@@H](OC)C(=O)[C@H](C)C[C@H](C)/C=C/C=C/C=C/1C` [Rapamycin, reference compound], in assay [2] (6 mg/kg, p.o., against non-drug treated allogenic control), the “Percent suppression (PLN)” value is on record as 86%. Further, the IC50 in assay [3] (Mus musculus, Thymocyte, 72 h) is 3.3 nM.
